This note sets out measurements from ChEMBL document CHEMBL1201862, “PubChem BioAssay data set” (2004).

Test systems include MDA-MB-231; T47D; OVCAR-5; CCRF-CEM; U-251; TK-10; BT-549; 786-0; LOX IMVI; CAKI-1; Hs-578T; DU-145; SF-539; K562; RPMI-8226; SW-620; SN12C; SF-268; SF-295.
Common to all, as to assay: NCI anticancer screen, dose series, 48 h

Each structure is given as a SMILES string.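 Where inhibition never reached the appropriate level, the endpoint shown equals the highest concentration tested. Otherwise, values were interpolated linearly from a five-concentration, 48-hour dose response in 96-well plates. GI50 = concentration required for 50% inhibition of growth.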 Active and inactive are the calls of the source. No stated cut-off is given here; in the data, active = GI50 up to about 1.1 µM and inactive = higher.

Turning to `COc1cc(/C=C/c2ccccn2)cc(OC)c1OC`, the GI50 with MDA-MB-231, in the assay on T47D, with OVCAR-5, with CCRF-CEM, with U-251 and in the assay with TK-10 was > 10 µM (inactive) throughout. For the same compound, the GI50 in the assay on BT-549, in the assay with 786-0, with LOX IMVI, in the assay with CAKI-1, in the assay on Hs-578T and in the assay on DU-145 was > 10 µM (inactive) throughout. Besides, the GI50 with SF-539, in the assay with K562, in the assay on RPMI-8226, in the assay on SW-620, with SN12C and in the assay on SF-268 was > 10 µM (inactive) throughout. In the assay on SF-295, the GI50 was > 10 µM (inactive).

As for `COc1ccc2c(c1)C(OC)C1c3c(cc4c(c3-2)OCO4)CCN1C` (centres undefined), the GI50 with MDA-MB-231 is 2.44 µM (inactive); in the assay with T47D it was 6.56 µM (inactive); with OVCAR-5 it was 3.13 µM (inactive); with CCRF-CEM, 2.24 µM (inactive); in the assay on U-251, 3.67 µM (inactive); in the assay on TK-10, 4.53 µM (inactive). The GI50 in the assay with BT-549 was 2.28 µM (inactive); with 786-0 it was 3.64 µM (inactive); with LOX IMVI, 2.81 µM (inactive); in the assay on CAKI-1, 2.12 µM (inactive); in the assay with Hs-578T, 1.96 µM (inactive); in the assay with DU-145, 5.41 µM (inactive). The GI50 in the assay on SF-539 was 2.54 µM (inactive); with K562 it was 3.63 µM (inactive); in the assay with RPMI-8226, 3.46 µM (inactive); with SW-620 it was 2.32 µM (inactive); with SN12C it was 2.64 µM (inactive); with SF-268 it was 4.63 µM (inactive). Moreover, the GI50 in the assay with SF-295 was 2.38 µM (inactive).

Turning to `Nc1nc(Cl)c(N)c(NCC2(CO)CCC(CCc3ccccc3)C2)n1` (centres undefined), the GI50 was 17 µM (inactive) in the assay on MDA-MB-231; 1.56 µM (inactive) with T47D; 20.9 µM (inactive) in the assay on OVCAR-5; 6.21 µM (inactive) with CCRF-CEM; 14.4 µM (inactive) with U-251; 21.3 µM (inactive) in the assay with TK-10. The GI50 with BT-549 was 11.1 µM (inactive); in the assay on 786-0 it was 20.4 µM (inactive); with LOX IMVI, 11.5 µM (inactive); with CAKI-1, 1.47 µM (inactive); in the assay on Hs-578T it was 21.1 µM (inactive); in the assay with DU-145, 21.4 µM (inactive). The GI50 was 15.5 µM (inactive) with SF-539; 0.183 µM (active) with K562; 14.3 µM (inactive) in the assay with RPMI-8226; 2.08 µM (inactive) with SW-620; 22.8 µM (inactive) in the assay on SN12C; 15.8 µM (inactive) with SF-268. Further, the GI50 in the assay with SF-295 is 10.6 µM (inactive).

Consider `Br[Se]c1ccccn1`, for which the GI50 is 17.7 µM (inactive) in the assay with MDA-MB-231; 21.8 µM (inactive) in the assay on T47D; 20.2 µM (inactive) in the assay with OVCAR-5; 27.6 µM (inactive) in the assay with CCRF-CEM; 15.6 µM (inactive) in the assay with U-251; 20.2 µM (inactive) in the assay with TK-10. Moreover, the GI50 was 18.9 µM (inactive) in the assay with BT-549; 18.2 µM (inactive) in the assay on 786-0; 18.7 µM (inactive) in the assay with LOX IMVI; 18.7 µM (inactive) with CAKI-1; 18.7 µM (inactive) in the assay with Hs-578T; 16.7 µM (inactive) in the assay with DU-145. Moreover, the GI50 in the assay with SF-539 is 15.8 µM (inactive); in the assay on K562, 24.8 µM (inactive); with RPMI-8226, 23.8 µM (inactive); in the assay on SW-620 it was 23.9 µM (inactive); in the assay with SN12C it was 18.7 µM (inactive); in the assay with SF-268 it was 18.2 µM (inactive). Further, in the assay with SF-295, the GI50 was 4.5 µM (inactive).

As for `Clc1nc(Cl)c(CBr)c(Cl)n1`, the GI50 with MDA-MB-231 is 1.9 µM (inactive); in the assay with T47D, 13.5 µM (inactive); in the assay on OVCAR-5, 3.22 µM (inactive); in the assay on CCRF-CEM it was 0.427 µM (active); with U-251 it was 4.06 µM (inactive); in the assay with TK-10, 4.7 µM (inactive). Besides, the GI50 with BT-549 was 2.17 µM (inactive); in the assay with 786-0, 2.24 µM (inactive); with LOX IMVI it was 1.83 µM (inactive); in the assay on CAKI-1, 10.9 µM (inactive); in the assay with Hs-578T it was 3.8 µM (inactive); with DU-145, 16.7 µM (inactive). Also, the GI50 in the assay on SF-539 is 2.99 µM (inactive); in the assay on K562, 2 µM (inactive); in the assay with RPMI-8226, 0.867 µM (active); with SW-620, 1.89 µM (inactive); in the assay with SN12C, 2.63 µM (inactive); in the assay on SF-268, 8.02 µM (inactive). In the assay with SF-295, the GI50 is 6.11 µM (inactive).

`COc1ccc2c3c1O[C@H]1C(O)CCC4(O)[C@@H](C2)NCC[C@]314` (some centres undefined): the GI50 in the assay on MDA-MB-231, in the assay on T47D, in the assay on OVCAR-5, in the assay on CCRF-CEM, in the assay with U-251 and in the assay with TK-10 was > 100 µM (inactive) each time. Moreover, the GI50 in the assay with BT-549, in the assay on 786-0, in the assay on LOX IMVI, in the assay on CAKI-1, in the assay on Hs-578T and in the assay on DU-145 was > 100 µM (inactive) each time. Also, the GI50 in the assay with SF-539, with K562, in the assay on RPMI-8226, with SW-620, in the assay with SN12C and in the assay with SF-268 was > 100 µM (inactive) throughout. For the same compound, the GI50 with SF-295 was > 100 µM (inactive).

Take `O=CC(=C(I)I)c1ccccc1`: the GI50 with MDA-MB-231 was 2.87 µM (inactive); in the assay on T47D it was 3.55 µM (inactive); in the assay with OVCAR-5, 6.75 µM (inactive); with CCRF-CEM, 0.2 µM (active); in the assay on U-251, 3.58 µM (inactive); with TK-10 it was 2.45 µM (inactive). Further, the GI50 was 4.38 µM (inactive) with BT-549; 2.14 µM (inactive) in the assay with 786-0; 1.66 µM (inactive) in the assay on LOX IMVI; 3.03 µM (inactive) in the assay with CAKI-1; 2.83 µM (inactive) in the assay with Hs-578T; 7.45 µM (inactive) in the assay with DU-145. The GI50 in the assay on SF-539 is 2.35 µM (inactive); with K562, 0.264 µM (active); in the assay on RPMI-8226 it was 0.977 µM (active); with SW-620, 0.728 µM (active); in the assay with SN12C it was 2.28 µM (inactive); in the assay on SF-268, 2.25 µM (inactive). Moreover, the GI50 with SF-295 was 7.78 µM (inactive).

Regarding `CC(NP(=O)(c1ccccc1)c1ccccc1)c1ccccc1` (centres undefined), the GI50 with MDA-MB-231, with T47D, with OVCAR-5, with CCRF-CEM, with U-251 and with TK-10 was > 100 µM (inactive) throughout. Moreover, the GI50 in the assay with BT-549, with 786-0, in the assay with LOX IMVI, with CAKI-1, in the assay on Hs-578T and in the assay on DU-145 was > 100 µM (inactive) in each case. Also, the GI50 with SF-539, with K562, in the assay on RPMI-8226, in the assay on SW-620, with SN12C and in the assay with SF-268 was > 100 µM (inactive) in each case. In addition, the GI50 with SF-295 is > 100 µM (inactive).

As for `COc1ccccc1C1C2=C(COC2=O)Oc2cc3c(cc21)OCO3` (centres undefined), the GI50 with MDA-MB-231 is 3.45 µM (inactive); in the assay with T47D, 2.32 µM (inactive); with OVCAR-5, 11 µM (inactive); in the assay on CCRF-CEM it was 2.13 µM (inactive); in the assay with U-251 it was 3.66 µM (inactive); with TK-10, 12.4 µM (inactive). Moreover, the GI50 in the assay on BT-549 was 66.2 µM (inactive); in the assay on 786-0 it was 3.18 µM (inactive); with LOX IMVI it was 2.27 µM (inactive); in the assay on CAKI-1, 3.55 µM (inactive); in the assay on Hs-578T it was 2.22 µM (inactive); with DU-145, 3.39 µM (inactive). The GI50 in the assay on SF-539 was 1.97 µM (inactive); in the assay with K562, 0.706 µM (active); in the assay on RPMI-8226, 3.27 µM (inactive); in the assay with SW-620, 1.38 µM (inactive); in the assay on SN12C, 3.82 µM (inactive); in the assay with SF-268 it was 4.88 µM (inactive). The GI50 with SF-295 was 2.17 µM (inactive).

On to `CCOC(=O)[C@H](O)[C@@H](O)C(=O)NCc1ccc(C(=O)c2ccccc2)cc1`, for which the GI50 in the assay on MDA-MB-231, in the assay with T47D, with OVCAR-5, with CCRF-CEM, in the assay with U-251 and with TK-10 was > 100 µM (inactive) each time. Besides, the GI50 in the assay on BT-549, in the assay on 786-0, with LOX IMVI, in the assay with CAKI-1, in the assay with Hs-578T and in the assay with DU-145 was > 100 µM (inactive) each time. In addition, the GI50 in the assay with SF-539, with K562, in the assay on RPMI-8226, in the assay on SW-620, in the assay on SN12C and in the assay with SF-268 was > 100 µM (inactive) throughout. In the assay with SF-295, the GI50 is > 100 µM (inactive).

Regarding `O=[N+]([O-])C(C(Cl)=C(Cl)Cl)=C(n1nnc2ccccc21)n1nnc2ccccc21`, the GI50 was 20.4 µM (inactive) in the assay with MDA-MB-231; 40.7 µM (inactive) in the assay with T47D; 47.1 µM (inactive) in the assay with OVCAR-5; 18.6 µM (inactive) with CCRF-CEM; 36.1 µM (inactive) with U-251; 46.1 µM (inactive) in the assay with TK-10. The GI50 is > 51.1 µM (inactive) with BT-549; 13.2 µM (inactive) with 786-0; 24.4 µM (inactive) with LOX IMVI; 30.3 µM (inactive) in the assay on CAKI-1; 35.8 µM (inactive) in the assay on Hs-578T; > 86.3 µM (inactive) with DU-145. Besides, the GI50 in the assay with SF-539 is 28.2 µM (inactive); in the assay on K562, 11.5 µM (inactive); in the assay with RPMI-8226 it was 24.8 µM (inactive); in the assay with SW-620 it was 5.21 µM (inactive); in the assay on SN12C, 22.6 µM (inactive); with SF-268 it was 30.1 µM (inactive). The GI50 in the assay on SF-295 was > 56 µM (inactive).
